Results reported in ChEMBL document CHEMBL3885881, “DrugMatrix”.

Species on record: Rattus norvegicus
Test: DrugMatrix - Regimen: Daily Repeat
Type: toxicity, organism-based, Sprague-Dawley
Set-up: regimen Daily Repeat, gender Male, age 6-8 weeks
Details: in vivo, po, route oral GAVAGE, […]; for ABSOLUTE BASOPHIL / ABSOLUTE EOSINOPHIL / ABSOLUTE LYMPHOCYTE / ABSOLUTE MONOCYTE / ABSOLUTE SEGMENTED NEUTROPHIL / BASOPHIL / EOSINOPHIL / ERYTHROCYTE COUNT / HEMATOCRIT / HEMOGLOBIN / LEUKOCYTE COUNT / LYMPHOCYTE / MEAN CORPUSCULAR HEMOGLOBIN / MEAN CORPUSCULAR HEMOGLOBIN CONCENTRATION / MEAN CORPUSCULAR VOLUME / MONOCYTE / NEUTROPHIL / NUCLEATED RED BLOOD CELLS / PLATELET COUNT: tissue Blood; for ALANINE AMINOTRANSFERASE / ALBUMIN / ALKALINE PHOSPHATASE / ASPARTATE AMINOTRANSFERASE / BLOOD UREA NITROGEN / CARBON DIOXIDE / CHLORIDE / CHOLESTEROL / CREATINE PHOSPHOKINASE / CREATININE / GLUCOSE / LACTATE DEHYDROGENASE / LIPASE / PHOSPHORUS / POTASSIUM / SODIUM / TOTAL BILIRUBIN / TOTAL PROTEIN / URIC ACID: tissue Plasma
[1] = 0 mg/kg, 72 h, dose level Control, time 3 day
[2] = 0 mg/kg, 120 h, dose level Control, time 5 day
[3] = 67 mg/kg, 72 h, dose level Low, time 3 day
[4] = 67 mg/kg, 120 h, dose level Low, time 5 day

Cc1cccc(C)c1NC(=O)C(C)N (stereo unspecified) [TOCAINIDE]
ABSOLUTE BASOPHIL [1]: 0 CELLS/uL | ABSOLUTE EOSINOPHIL [1]: 41.83 CELLS/uL | ABSOLUTE LYMPHOCYTE [1]: 8545.5 CELLS/uL | ABSOLUTE MONOCYTE [1]: 240 CELLS/uL | ABSOLUTE SEGMENTED NEUTROPHIL [1]: 906 CELLS/uL | BASOPHIL [1]: 0% | EOSINOPHIL [1]: 0.33% | ERYTHROCYTE COUNT [1]: 5.6 x10E6/uL | HEMATOCRIT [1]: 35.4% | HEMOGLOBIN [1]: 13.42 G/DL | LEUKOCYTE COUNT [1]: 9.73 x10E3/uL | LYMPHOCYTE [1]: 87.83% | MEAN CORPUSCULAR HEMOGLOBIN [1]: 23.98 pg | MEAN CORPUSCULAR HEMOGLOBIN CONCENTRATION [1]: 37.92 G/DL | MEAN CORPUSCULAR VOLUME [1]: 63.3 fL | MONOCYTE [1]: 2.5% | NEUTROPHIL [1]: 9.33% | NUCLEATED RED BLOOD CELLS [1]: 0 /100WBC | PLATELET COUNT [1]: 1032 x10E3/uL | ALANINE AMINOTRANSFERASE [1]: 72.83 u/L | ALBUMIN [1]: 4 G/DL | ALKALINE PHOSPHATASE [1]: 322.83 u/L | ASPARTATE AMINOTRANSFERASE [1]: 102.67 u/L | BLOOD UREA NITROGEN [1]: 12 mg/dL | CARBON DIOXIDE [1]: 34.33 mmol/L | CHLORIDE [1]: 97.67 MEQ/L | CHOLESTEROL [1]: 82.5 mg/dL | CREATINE PHOSPHOKINASE [1]: 410.33 u/L | CREATININE [1]: 0.18 mg/dL | GLUCOSE [1]: 164.5 mg/dL | LACTATE DEHYDROGENASE [1]: 119.5 u/L | LIPASE [1]: 11.83 u/L | PHOSPHORUS [1]: 9.52 mg/dL | POTASSIUM [1]: 5.56 MEQ/L | SODIUM [1]: 142.48 MEQ/L | TOTAL BILIRUBIN [1]: 0.18 mg/dL | TOTAL PROTEIN [1]: 5.77 G/DL | URIC ACID [1]: 0.48 mg/dL | ABSOLUTE BASOPHIL [2]: 0 CELLS/uL | ABSOLUTE EOSINOPHIL [2]: 0 CELLS/uL | ABSOLUTE LYMPHOCYTE [2]: 9065 CELLS/uL | ABSOLUTE MONOCYTE [2]: 341.33 CELLS/uL | ABSOLUTE SEGMENTED NEUTROPHIL [2]: 527 CELLS/uL | BASOPHIL [2]: 0% | EOSINOPHIL [2]: 0% | ERYTHROCYTE COUNT [2]: 5.25 x10E6/uL | HEMATOCRIT [2]: 34.08% | HEMOGLOBIN [2]: 13.5 G/DL | LEUKOCYTE COUNT [2]: 9.93 x10E3/uL | LYMPHOCYTE [2]: 91.17% | MEAN CORPUSCULAR HEMOGLOBIN [2]: 25.7 pg | MEAN CORPUSCULAR HEMOGLOBIN CONCENTRATION [2]: 39.62 G/DL | MEAN CORPUSCULAR VOLUME [2]: 64.93 fL | MONOCYTE [2]: 3.33% | NEUTROPHIL [2]: 5.5% | NUCLEATED RED BLOOD CELLS [2]: 0 /100WBC | PLATELET COUNT [2]: 1077.5 x10E3/uL | ALANINE AMINOTRANSFERASE [2]: 57.83 u/L | ALBUMIN [2]: 4.07 G/DL | ALKALINE PHOSPHATASE [2]: 319.17 u/L | ASPARTATE AMINOTRANSFERASE [2]: 83.33 u/L | BLOOD UREA NITROGEN [2]: 13.67 mg/dL | CARBON DIOXIDE [2]: 30.83 mmol/L | CHLORIDE [2]: 98.33 MEQ/L | CHOLESTEROL [2]: 64.83 mg/dL | CREATINE PHOSPHOKINASE [2]: 263.67 u/L | CREATININE [2]: 0.2 mg/dL | GLUCOSE [2]: 182.83 mg/dL | LACTATE DEHYDROGENASE [2]: 124 u/L | LIPASE [2]: 10.5 u/L | PHOSPHORUS [2]: 10 mg/dL | POTASSIUM [2]: 5.78 MEQ/L | SODIUM [2]: 142.48 MEQ/L | TOTAL BILIRUBIN [2]: 0.2 mg/dL | TOTAL PROTEIN [2]: 6 G/DL | URIC ACID [2]: 0.7 mg/dL | ABSOLUTE BASOPHIL [3]: 0 CELLS/uL | ABSOLUTE EOSINOPHIL [3]: 83.33 CELLS/uL | ABSOLUTE LYMPHOCYTE [3]: 10800 CELLS/uL | ABSOLUTE MONOCYTE [3]: 251.33 CELLS/uL | ABSOLUTE SEGMENTED NEUTROPHIL [3]: 1265.33 CELLS/uL | BASOPHIL [3]: 0% | EOSINOPHIL [3]: 0.67% | ERYTHROCYTE COUNT [3]: 5.15 x10E6/uL | HEMATOCRIT [3]: 32.47% | HEMOGLOBIN [3]: 12.83 G/DL | LEUKOCYTE COUNT [3]: 12.4 x10E3/uL | LYMPHOCYTE [3]: 86.67% | MEAN CORPUSCULAR HEMOGLOBIN [3]: 24.97 pg | MEAN CORPUSCULAR HEMOGLOBIN CONCENTRATION [3]: 39.5 G/DL | MEAN CORPUSCULAR VOLUME [3]: 63.07 fL | MONOCYTE [3]: 2.33% | NEUTROPHIL [3]: 10.33% | NUCLEATED RED BLOOD CELLS [3]: 0 /100WBC | PLATELET COUNT [3]: 980 x10E3/uL | ALANINE AMINOTRANSFERASE [3]: 64 u/L | ALBUMIN [3]: 3.83 G/DL | ALKALINE PHOSPHATASE [3]: 379.67 u/L | ASPARTATE AMINOTRANSFERASE [3]: 79.67 u/L | BLOOD UREA NITROGEN [3]: 12.33 mg/dL | CARBON DIOXIDE [3]: 26 mmol/L | CHLORIDE [3]: 101 MEQ/L | CHOLESTEROL [3]: 69.33 mg/dL | CREATINE PHOSPHOKINASE [3]: 212.67 u/L | CREATININE [3]: 0.29 mg/dL | GLUCOSE [3]: 163 mg/dL | LACTATE DEHYDROGENASE [3]: 145.67 u/L | LIPASE [3]: 16 u/L | PHOSPHORUS [3]: 10.33 mg/dL | POTASSIUM [3]: 5.62 MEQ/L | SODIUM [3]: 142.37 MEQ/L | TOTAL BILIRUBIN [3]: 0.2 mg/dL | TOTAL PROTEIN [3]: 5.4 G/DL | URIC ACID [3]: 0.83 mg/dL | ABSOLUTE BASOPHIL [4]: 0 CELLS/uL | ABSOLUTE EOSINOPHIL [4]: 0 CELLS/uL | ABSOLUTE LYMPHOCYTE [4]: 9456 CELLS/uL | ABSOLUTE MONOCYTE [4]: 276.33 CELLS/uL | ABSOLUTE SEGMENTED NEUTROPHIL [4]: 701 CELLS/uL | BASOPHIL [4]: 0% | EOSINOPHIL [4]: 0% | ERYTHROCYTE COUNT [4]: 5.11 x10E6/uL | HEMATOCRIT [4]: 34.43% | HEMOGLOBIN [4]: 13.2 G/DL | LEUKOCYTE COUNT [4]: 10.43 x10E3/uL | LYMPHOCYTE [4]: 90.67% | MEAN CORPUSCULAR HEMOGLOBIN [4]: 25.9 pg | MEAN CORPUSCULAR HEMOGLOBIN CONCENTRATION [4]: 38.37 G/DL | MEAN CORPUSCULAR VOLUME [4]: 67.47 fL | MONOCYTE [4]: 2.67% | NEUTROPHIL [4]: 6.67% | NUCLEATED RED BLOOD CELLS [4]: 0 /100WBC | PLATELET COUNT [4]: 1124 x10E3/uL | ALANINE AMINOTRANSFERASE [4]: 58.33 u/L | ALBUMIN [4]: 4.1 G/DL | ALKALINE PHOSPHATASE [4]: 361 u/L | ASPARTATE AMINOTRANSFERASE [4]: 79.67 u/L | BLOOD UREA NITROGEN [4]: 10.67 mg/dL | CARBON DIOXIDE [4]: 30.67 mmol/L | CHLORIDE [4]: 95 MEQ/L | CHOLESTEROL [4]: 65.67 mg/dL | CREATININE [4]: 0.16 mg/dL | GLUCOSE [4]: 174.33 mg/dL | LACTATE DEHYDROGENASE [4]: 154.67 u/L | LIPASE [4]: 9.67 u/L | PHOSPHORUS [4]: 10.87 mg/dL | POTASSIUM [4]: 5.33 MEQ/L | SODIUM [4]: 137.97 MEQ/L | TOTAL BILIRUBIN [4]: 0.17 mg/dL | TOTAL PROTEIN [4]: 5.97 G/DL | URIC ACID [4]: 0.7 mg/dL
